Measured values taken from ChEMBL document CHEMBL3039007, “Structure-based identification of OATP1B1/3 inhibitors” (Mol Pharmacol, 2013).

How the values were obtained:
[1] = target: T1, Solute carrier organic anion transporter family member 1B1 (Homo sapiens, UniProt Q9Y6L6); details: chinese hamster, cho, 10 µM
T1 sequence (Q9Y6L6 whole entry): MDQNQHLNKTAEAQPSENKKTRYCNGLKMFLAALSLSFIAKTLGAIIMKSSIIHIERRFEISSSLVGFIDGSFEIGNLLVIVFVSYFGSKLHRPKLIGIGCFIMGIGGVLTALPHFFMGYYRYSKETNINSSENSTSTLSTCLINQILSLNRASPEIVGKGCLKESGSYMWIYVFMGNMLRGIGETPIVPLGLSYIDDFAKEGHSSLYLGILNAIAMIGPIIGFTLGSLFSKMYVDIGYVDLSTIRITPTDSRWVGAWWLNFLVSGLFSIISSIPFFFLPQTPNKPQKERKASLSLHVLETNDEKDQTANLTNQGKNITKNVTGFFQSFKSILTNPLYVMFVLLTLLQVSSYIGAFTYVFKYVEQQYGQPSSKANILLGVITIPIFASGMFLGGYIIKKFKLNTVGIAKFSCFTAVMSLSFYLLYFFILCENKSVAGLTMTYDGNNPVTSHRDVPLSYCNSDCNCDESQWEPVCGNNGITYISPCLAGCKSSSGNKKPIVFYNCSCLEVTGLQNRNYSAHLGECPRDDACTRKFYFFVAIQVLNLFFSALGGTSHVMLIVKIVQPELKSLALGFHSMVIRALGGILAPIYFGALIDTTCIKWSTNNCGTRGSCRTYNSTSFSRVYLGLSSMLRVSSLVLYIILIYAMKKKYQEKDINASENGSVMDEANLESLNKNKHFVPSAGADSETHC

[2] = target: T2, Solute carrier organic anion transporter family member 1B3 (Homo sapiens, UniProt Q9NPD5); details: chinese hamster, cho, 10 µM
T2 sequence (Q9NPD5 whole entry): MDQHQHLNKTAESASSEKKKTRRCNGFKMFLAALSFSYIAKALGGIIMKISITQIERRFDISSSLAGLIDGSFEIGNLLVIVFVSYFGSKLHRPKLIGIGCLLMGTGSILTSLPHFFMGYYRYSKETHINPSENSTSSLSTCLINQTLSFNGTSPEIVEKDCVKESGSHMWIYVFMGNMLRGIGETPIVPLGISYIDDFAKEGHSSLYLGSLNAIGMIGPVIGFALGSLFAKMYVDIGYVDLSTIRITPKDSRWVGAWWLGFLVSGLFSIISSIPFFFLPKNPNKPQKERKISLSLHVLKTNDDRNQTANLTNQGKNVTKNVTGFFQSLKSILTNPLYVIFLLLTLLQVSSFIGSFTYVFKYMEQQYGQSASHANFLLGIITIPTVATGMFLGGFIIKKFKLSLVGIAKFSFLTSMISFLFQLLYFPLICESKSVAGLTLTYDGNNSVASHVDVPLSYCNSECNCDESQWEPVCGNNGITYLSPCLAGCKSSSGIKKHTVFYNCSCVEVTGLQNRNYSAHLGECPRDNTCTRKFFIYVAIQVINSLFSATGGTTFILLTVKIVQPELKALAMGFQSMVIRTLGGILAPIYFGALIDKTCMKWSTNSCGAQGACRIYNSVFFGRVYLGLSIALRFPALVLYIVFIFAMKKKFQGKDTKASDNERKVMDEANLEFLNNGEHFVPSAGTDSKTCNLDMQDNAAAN

SMILES	residual activity [1]	residual activity [2]
CN[C@H]1CC[C@@H](c2ccc(Cl)c(Cl)c2)c2ccccc21.Cl [SERTRALINE HYDROCHLORIDE]	66.16%	72.13%
CCNc1nc(Cl)nc(NCC)n1 [SIMAZINE]	89.71%	92.02%
COc1cc(/C=C/C(=O)O)cc(OC)c1OC [SINAPIC ACID METHYL ETHER]	80.23%	88.51%
COC1=C[C@@H]2[C@@H]3Cc4ccc(OC)c(O)c4[C@]2(CCN3C)CC1=O [SINOMENINE]	105.5%	68.46%
CC[C@H](CC[C@@H](C)[C@H]1CC[C@H]2[C@@H]3CC=C4C[C@@H](OC(C)=O)CC[C@]4(C)[C@H]3CC[C@]12C)C(C)C [SITOSTERYL ACETATE]	97.72%	83.78%
O=C([O-])CF.[Na+] [SODIUM FLUOROACETATE]	112.7%	104.2%
O=C([O-])c1ccccc1O.[Na+] [SODIUM SALICYLATE]	55.28%	80.83%
NC(=O)c1ccc[n+]([C@@H]2O[C@H](COP(=O)([O-])OP(=O)(O)OC[C@H]3O[C@@H](n4cnc5c(N)ncnc54)[C@H](OP(=O)(O)O)[C@@H]3O)[C@@H](O)[C@H]2O)c1 [SODIUM beta-NICOTINAMIDE ADENINE DINUCLEOTIDE PHOSPHATE]	190%	105.1%
C[C@@H]1CC[C@]2(NC1)O[C@H]1C[C@H]3[C@@H]4CC=C5C[C@@H](O)CC[C@]5(C)[C@H]4CC[C@]3(C)[C@H]1[C@@H]2C [SOLASODINE]	91.83%	113.6%
CC(=O)N[C@@H](CC(=O)N[C@@H](CCC(=O)O)C(=O)O)C(=O)O [SPAGLUMIC ACID]	87.3%	87.85%
COc1cc2ccc(=O)oc2c2ccoc12 [SPHONDIN]	127%	102.5%
O=C(CCCN1CCC2(CC1)C(=O)NCN2c1ccccc1)c1ccc(F)cc1 [SPIPERONE]	168.8%	108.9%
CC(=O)S[C@@H]1CC2=CC(=O)CC[C@]2(C)[C@H]2CC[C@@]3(C)[C@@H](CC[C@@]34CCC(=O)O4)[C@H]12 [SPIRONOLACTONE]	52.45%	103.5%
COc1cc(C)c2c(c1C=O)Oc1c(c(C)c(O)c3c1C(O)OC3=O)OC2=O (stereo not given) [STICTIC ACID]	94.3%	32.28%
CC[C@H](CC[C@@H](C)[C@H]1CC[C@H]2[C@@H]3CC[C@H]4C[C@@H](O)CC[C@]4(C)[C@H]3CC[C@]12C)C(C)C [STIGMASTANOL]	77.21%	102.9%
CC[C@H](/C=C/[C@@H](C)[C@H]1CC[C@H]2[C@@H]3CC=C4C[C@@H](O)CC[C@]4(C)[C@H]3CC[C@]12C)C(C)C [STIGMASTEROL]	110.2%	103.2%
CN[C@@H]1[C@H](O[C@H]2[C@H](O[C@H]3[C@H](O)[C@@H](O)[C@H](N=C(N)N)[C@@H](O)[C@@H]3N=C(N)N)O[C@@H](C)[C@]2(O)C=O)O[C@@H](CO)[C@H](O)[C@H]1O.CN[C@@H]1[C@H](O[C@H]2[C@H](O[C@H]3[C@H](O)[C@@H](O)[C@H](N=C(N)N)[C@@H](O)[C@@H]3N=C(N)N)O[C@@H](C)[C@]2(O)C=O)O[C@@H](CO)[C@H](O)[C@H]1O.O=S(=O)(O)O.O=S(=O)(O)O.O=S(=O)(O)O [STREPTOMYCIN SULFATE]	87.18%	109.2%
CN(N=O)C(=O)N[C@@H](C=O)[C@@H](O)[C@H](O)[C@H](O)CO [STREPTOZOCIN]	93.43%	100.3%
CC1(C)C2(Cl)C(Cl)C(Cl)C(Cl)(C(Cl)Cl)C1(Cl)C2Cl (stereo not given) [STROBANE]	106.1%	105.4%
O=C1C[C@@H]2OCC=C3CN4CC[C@]56c7ccccc7N1[C@H]5[C@H]2[C@H]3C[C@H]46 [STRYCHNINE]	79.74%	93.97%
CC(=O)CC(=O)CCC(=O)O [SUCCINYLACETONE]	92.01%	94.95%
Clc1ccc(CSC(Cn2ccnc2)c2ccc(Cl)cc2Cl)cc1.O=[N+]([O-])O (stereo not given) [SULCONAZOLE NITRATE]	116.2%	107.6%
Nc1ccc(S(=O)(=O)NC(=O)c2ccccc2)cc1 [SULFABENZAMIDE]	84.77%	94.35%

SMILES	residual activity [1]	residual activity [2]
Nc1ccc(S(=O)(=O)Nc2ccc(Cl)nn2)cc1 [SULFACHLORPYRIDAZINE]	134.9%	95.19%
Nc1ccc(S(=O)(=O)Nc2ncccn2)cc1 [SULFADIAZINE]	90.81%	74.08%
COc1cc(NS(=O)(=O)c2ccc(N)cc2)nc(OC)n1 [SULFADIMETHOXINE]	118.7%	103%
[H]/N=C(/N)NS(=O)(=O)c1ccc(N)cc1 [SULFAGUANIDINE]	119.2%	108%
Cc1ccnc(NS(=O)(=O)c2ccc(N)cc2)n1 [SULFAMERAZINE]	84.88%	101.2%
Cc1cc(C)nc(NS(=O)(=O)c2ccc(N)cc2)n1 [SULFAMETHAZINE]	90.46%	97.37%
Cc1nnc(NS(=O)(=O)c2ccc(N)cc2)s1 [SULFAMETHIZOLE]	89.01%	100.6%
Cc1cc(NS(=O)(=O)c2ccc(N)cc2)no1 [SULFAMETHOXAZOLE]	104.3%	94.47%
COc1cc(NS(=O)(=O)c2ccc(N)cc2)ncn1 [SULFAMONOMETHOXINE]	109.8%	105.3%
Nc1ccc(S(N)(=O)=O)cc1 [SULFANILAMIDE]	113.8%	155.8%
Nc1ccc(S(=O)(=O)Nc2ccnn2-c2ccccc2)cc1 [SULFAPHENAZOLE]	104.5%	98.59%
Nc1ccc(S(=O)(=O)Nc2ccccn2)cc1 [SULFAPYRIDINE]	73.46%	105.2%
Nc1ccc(S(=O)(=O)[N-]c2cnc3ccccc3n2)cc1.[Na+] [SULFAQUINOXALINE SODIUM]	73.75%	102.9%
O=C(O)c1cc(/N=N/c2ccc(S(=O)(=O)Nc3ccccn3)cc2)ccc1O [SULFASALAZINE]	126.2%	72.91%
Nc1ccc(S(=O)(=O)Nc2nccs2)cc1 [SULFATHIAZOLE]	89.12%	85.21%
O=C1C(CC[S+]([O-])c2ccccc2)C(=O)N(c2ccccc2)N1c1ccccc1 (stereo not given) [SULFINPYRAZONE]	55.19%	43.93%
Cc1noc(NS(=O)(=O)c2ccc(N)cc2)c1C [SULFISOXAZOLE]	78.99%	90.16%
COc1cc([S+](C)[O-])ccc1-c1nc2ncccc2[nH]1 (stereo not given) [SULMAZOLE]	107.4%	116.5%
CCCCCCCCNC(C)C(O)c1ccc(SC(C)C)cc1 (stereo not given) [SULOCTIDIL]	143.8%	108.7%
CCN1CCCC1CNC(=O)c1cc(S(N)(=O)=O)ccc1OC (stereo not given) [SULPIRIDE]	121.8%	106.2%
COC(=O)C(C)c1ccc(C(=O)c2cccs2)cc1 (stereo not given) [SUPROFEN METHYL ESTER]	93.7%	95.34%
CC(C(=O)O)c1ccc(C(=O)c2cccs2)cc1 (stereo not given) [SUPROFEN]	108.5%	96.21%
